Legend:
UCP1 = UCP1 expression-enhancing effect in skeletal muscle cells or adipocytes; assay type: cell-based
human white adipocytes = experiment: Free fatty acid β-oxidation in human white adipocytes ([9,10(n)-3H]palmitic acid, 3H2O release); assay type: cell-based; settings: 10 μM, 48 hr, vs DMSO control
Experimental: After human fully differentiated white adipocytes had been prepared in the same manner as in Example 1, the supernatant was removed, and 500 μl of a medium which had been prepared by adding adequate amounts of oleic acid and palmitic acid to an adipocyte medium so that their concentrations were 0.67 mM and 0.33 mM, respectively, was added. Various kinds of test compounds were added to the medium in such a manner that their final concentrations were 10 μM, and subsequently, [9,10(n)-3H]palmitic acid (manufactured by Amersham Pharmacia, final concentration of 1 μCi/ml) was added to each well, and the cells were cultured at 37° C. for 48 hr. The test compounds were YM-16638 of a PPAR δ ligand, WY14643 of a PPAR α ligand, L755,507 of a β3 adrenergic receptor agonist and Rosiglitazone of a PPAR γ ligand. A control was prepared by adding DMSO, which was the solvent for the test compounds, in such a manner that the final concentration was 0.5%, and it was cultured in the same manner as the test compounds. In order to prevent the evaporation of ^3H2O produced by β-oxidation of the [9,10(n)-^3H]palmitic acid by the cells during culture, the culture plates were sealed with mini-culture filters (MS-30055) manufactured by Sumitomo Bakelite Co. Ltd.
After 48-hour culture, 200 μl of the supernatant of the medium was transferred to a 1.5-ml Eppendorf tube, 50 μl of 50% trichloroacetic acid was added, the tube was held on ice for 30 min to produce precipitates, and the mixture was centrifuged for 10 min at 15,000 rpm. Subsequently, in a 20-ml glass vial into which 500 μl of distilled water had been placed in advance, a cap-free 1.5-ml Eppendorf tube was placed, the total amount of the supernatant obtained above was placed into this Eppendorf tube, and the vial was tightly sealed with a polypropylene packing-attached lid. […] Into the ^3H2O-containing distilled water remaining in the vial, 5 ml of a liquid scintillation cocktail (Ultima Gold, manufactured by Packard) was added, and radioactivity was measured after sufficient mixing.

UCP2 = settings: J. Biol. Chem. 276, 10853-10860 (2001); cited from earlier work

Q: With `CC#CCC(C)[C@H](O)/C=C/[C@@H]1[C@H]2C/C(=C/CCCC(=O)O)C[C@H]2C[C@H]1O` (stereo partly drawn) [Iloprost, 5-{(E)-(1S,5S,6R,7R)-7-hydroxy-6-[(E)-(3S,4RS)-3-hydroxy-4-methyl-5-octen-6-inyl]-bicyclo[3.3.0]-octan-3-ylidene} pentenoic acid] as the compound, how does the UCP1 expression-enhancing effect (UCP1) read?
A: Its UCP1 expression-enhancing effect is “had a UCP1 expression-enhancing effect”.

Q: With `CCCCCCNC(=O)Nc1ccc(S(=O)(=O)Nc2ccc(CCNC[C@H](O)COc3ccc(O)cc3)cc2)cc1` [L755,507] as the compound, how does the “enhancement of β-oxidation in the cells” value (human white adipocytes) read?
A: Its value is “no enhancement”.

Q: For `CCCc1c(OCCCOc2ccc(OCC(=O)O)cc2)ccc(C(C)=O)c1O` [L-165041, 4-(3-(2-propyl-3-hydroxy-4-acetyl-phenoxy)propyloxy)-phenoxyacetic acid], which “expression of UCP2” value (UCP2) is on record?
A: The value was “increase the expression of UCP2”.

Q: For `CN(CCOc1ccc(CC2SC(=O)NC2=O)cc1)c1ccccn1` (stereo not drawn) [Rosiglitazone], which “enhancement of β-oxidation in the cells” value (human white adipocytes) is on record?
A: Its value is 15%.

Q: With `Cc1cccc(Nc2cc(Cl)nc(SCC(=O)O)n2)c1C` [WY14643] as the compound, how does the UCP1 expression-enhancing effect (UCP1) read?
A: Its UCP1 expression-enhancing effect is “hardly exhibit a UCP1 expression enhancing effect”.

Q: What about the “enhancement of β-oxidation in the cells” value (human white adipocytes) of the same compound?
A: The value was “no enhancement”.

Q: Which “expression of UCP2” value (UCP2) does the source give for `CCCCC/C=C\C/C=C\C/C=C\C/C=C\CCCC(=O)O` [arachidonic acid] here?
A: Its value is “increase the expression of UCP2”.

Q: For `CCCCC[C@H](O)/C=C/[C@@H]1[C@H]2C/C(=C/CCCC(=O)O)C[C@H]2C[C@H]1O` [carbaprostacyclin, 6,9 α-methylene-11 α, 15S-dihydroxy-prosta-5E, 13E-dien-1-oic acid], which UCP1 expression-enhancing effect (UCP1) is on record?
A: The UCP1 expression-enhancing effect was “had a UCP1 expression-enhancing effect”.

Q: And the “expression of UCP2” value (UCP2)?
A: The value was “increase the expression of UCP2”.

Source: patent US20080287544A1, “Method for Screening Substance by Measuring PPAR DELTA Activating Effect and Agent” (Teijin Limited, priority 2001, published 2008)
